Test results reported in patent US11464770B2, “Anticancer pharmaceutical composition” (NATIONAL CANCER CENTER, priority 2016, dated 2022).
Where two headings read alike, the source gives them in different places.

Tested on: breast cancer cell lines (e.g. MDA-MB-231, SK-BR-3, MDA-MB-468, HCC1954)
Test: Cell based assay, cell viability (CellTiter-Glo), breast cancer cell lines
Procedure, shortened: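 Commercial tumour lines, detached with trypsin-EDTA, were seeded and incubated 24 h. They were then dosed to 0–2 μM final, grown 72 h, and assessed for viability using CellTiter-Glo.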

[1] = Breast cancer cell line MDA-MB-231-L/DOX, 72 hours, CellTiter-Glo, read-out: IC50, MDA-MB-231-L/DOX
[2] = Homo sapiens, Breast cancer cell line BT-20, 72 hours, CellTiter-Glo, read-out: IC50, BT-20
[3] = Homo sapiens, Breast cancer cell line HCC1395, 72 hours, CellTiter-Glo, read-out: IC50, HCC1395
[4] = Homo sapiens, Breast cancer cell line HCC1954, 72 hours, CellTiter-Glo, read-out: IC50, HCC1954
[5] = Homo sapiens, Breast cancer cell line JIMT-1, 72 hours, CellTiter-Glo, read-out: IC50, JIMT-1
[6] = Homo sapiens, Breast cancer cell line MCF7, 72 hours, CellTiter-Glo, read-out: IC50, MCF7
[7] = Homo sapiens, Breast cancer cell line MDA-MB-231, 72 hours, CellTiter-Glo, read-out: IC50, MDA-MB-231
[8] = Homo sapiens, Breast cancer cell line MDA-MB-468, 72 hours, CellTiter-Glo, read-out: IC50, MDA-MB-468
[9] = Homo sapiens, Breast cancer cell line SK-BR-3, 72 hours, CellTiter-Glo, read-out: IC50, SK-BR-3
[10] = Homo sapiens, BT-20 cells, 72 hours treatment, CellTiter-Glo cell viability, read-out: IC50, Breast cancer cell line BT-20
[11] = Homo sapiens, HCC1395 cells, 72 hours treatment, CellTiter-Glo cell viability, read-out: IC50, Breast cancer cell line HCC1395
[12] = Homo sapiens, HCC1954 cells, 72 hours treatment, CellTiter-Glo cell viability, read-out: IC50, Breast cancer cell line HCC1954
[13] = Homo sapiens, JIMT-1 cells, 72 hours treatment, CellTiter-Glo cell viability, read-out: IC50, Breast cancer cell line JIMT-1
[14] = Homo sapiens, MCF7 cells, 72 hours treatment, CellTiter-Glo cell viability, read-out: IC50, Breast cancer cell line MCF7
[15] = Homo sapiens, MDA-MB-231 cells, 72 hours treatment, CellTiter-Glo cell viability, read-out: IC50, Breast cancer cell line MDA-MB-231
[16] = Homo sapiens, MDA-MB-468 cells, 72 hours treatment, CellTiter-Glo cell viability, read-out: IC50, Breast cancer cell line MDA-MB-468
[17] = Homo sapiens, SK-BR-3 cells, 72 hours treatment, CellTiter-Glo cell viability, read-out: IC50, Breast cancer cell line SK-BR-3
[18] = MDA-MB-231-L/DOX cells, 72 hours treatment, CellTiter-Glo cell viability, read-out: IC50, Breast cancer cell line MDA-MB-231-L/DOX

SMILES | IC50 [1] | IC50 [2] | IC50 [3] | IC50 [4] | IC50 [5] | IC50 [6] | IC50 [7] | IC50 [8] | IC50 [9] | IC50 [10] | IC50 [11] | IC50 [12] | IC50 [13] | IC50 [14] | IC50 [15] | IC50 [16] | IC50 [17] | IC50 [18]
CC(=O)c1c([S+]([O-])Cc2c(F)c(F)c(F)c(F)c2F)[nH]c2c(Br)ccc(Cl)c2c1=O (stereo not drawn) [Compound 78, 3-acetyl-8-bromo-5-chloro-2-(((perfluorophenyl)methyl)sulfinyl)quinolin-4(1H)-one] | > 2 µM | > 2 µM | > 10 µM | > 2 µM | > 10 µM | > 2 µM | > 2 µM | > 2 µM | 1.2 µM |  |  |  |  |  |  |  |  | 
CC(=O)c1c([S+]([O-])Cc2cc(Cl)ccc2Cl)[nH]c2c(Br)ccc(Cl)c2c1=O (stereo not drawn) [Compound 44, 3-acetyl-8-bromo-5-chloro-2-((2,5-dichlorobenzyl)sulfinyl)quinolin-4(1H)-one] | > 2 µM | > 2 µM | > 10 µM | > 2 µM | > 10 µM | > 2 µM | > 2 µM | > 2 µM | 1.06 µM |  |  |  |  |  |  |  |  | 
CC(=O)c1c(S(=O)(=O)Cc2ccccc2)[nH]c2c(Br)ccc(Cl)c2c1=O [Compound 34, 3-acetyl-2-(benzylsulfonyl)-8-bromo-5-chloroquinolin-4(1H)-one] | > 2 µM | > 2 µM | > 10 µM | > 2 µM | > 10 µM | > 2 µM | > 2 µM | > 2 µM | 1.27 µM |  |  |  |  |  |  |  |  | 
COC(=O)c1ccc(C[S+]([O-])c2[nH]c3c(Cl)ccc(Cl)c3c(=O)c2C(C)=O)o1 (stereo not drawn) [Compound 89, methyl 5-(((3-acetyl-5,8-dichloro-4-oxo-1,4-dihydroquinolin-2-yl)sulfinyl)methyl)furan-2-carboxylate] |  |  |  |  |  |  |  |  |  | > 2 µM | > 10 µM | 1.34 µM | > 10 µM | > 2 µM | > 2 µM | 1.36 µM | 1.36 µM | > 2 µM
CC(=O)c1c([S+]([O-])Cc2ccc(C#N)cc2)[nH]c2c(Br)ccc(Cl)c2c1=O (stereo not drawn) [Compound 73, 4-(((3-acetyl-8-bromo-5-chloro-4-oxo-1,4-dihydroquinolin-2-yl)sulfinyl)methyl)benzonitrile] | > 2 µM | > 2 µM | > 10 µM | > 2 µM | > 10 µM | > 2 µM | > 2 µM | > 2 µM | 1.2 µM |  |  |  |  |  |  |  |  | 
CC(=O)c1c([S+]([O-])Cc2cccnc2)[nH]c2c(Br)ccc(Cl)c2c1=O (stereo not drawn) [Compound 84, 3-acetyl-8-bromo-5-chloro-2-((pyridin-3-ylmethyl)sulfinyl)quinolin-4(1H)-one] |  |  |  |  |  |  |  |  |  | > 2 µM | > 10 µM | 1.12 µM | > 10 µM | > 2 µM | 1.6 µM | 1.04 µM | 0.76 µM | > 2 µM
CC(=O)c1c([S+]([O-])Cc2ccc(C(F)(F)F)cc2)[nH]c2c(Br)ccc(Cl)c2c1=O (stereo not drawn) [Compound 70, 3-acetyl-8-bromo-5-chloro-2-((4-(trifluoromethyl)benzyl)sulfinyl)quinolin-4(1H)-one] | > 2 µM | > 2 µM | > 10 µM | > 2 µM | > 10 µM | > 2 µM | > 2 µM | > 2 µM | 1.21 µM |  |  |  |  |  |  |  |  | 
CC(=O)c1c([S+]([O-])Cc2ccc(OC(F)(F)F)cc2)[nH]c2c(Br)ccc(Cl)c2c1=O (stereo not drawn) [Compound 71, 3-acetyl-8-bromo-5-chloro-2-((4-(trifluoromethoxy)benzyl)sulfinyl)quinolin-4(1H)-one] | > 2 µM | > 2 µM | > 10 µM | > 2 µM | > 10 µM | > 2 µM | > 2 µM | > 2 µM | 1.55 µM |  |  |  |  |  |  |  |  | 
Cc1cc(C[S+]([O-])c2[nH]c3c(Br)ccc(Cl)c3c(=O)c2C(=O)C(C)C)no1 (stereo not drawn) [Compound 95, 8-bromo-5-chloro-3-isobutyryl-2-(((5-methylisoxazol-3-yl)methyl)sulfinyl)quinolin-4(1H)-one] |  |  |  |  |  |  |  |  |  | 1.87 µM | > 10 µM | 0.48 µM | > 2 µM | 1.29 µM | 1.41 µM | 0.47 µM | 0.47 µM | 1.03 µM
COc1cccc(C[S+]([O-])c2[nH]c3c(Br)ccc(Cl)c3c(=O)c2C(C)=O)c1 (stereo not drawn) [Compound 55, 3-acetyl-8-bromo-5-chloro-2-((3-methoxybenzyl)sulfinyl)quinolin-4(1H)-one] | > 2 µM | > 2 µM | > 10 µM | > 2 µM | > 10 µM | > 2 µM | > 2 µM | > 2 µM | 1.1 µM |  |  |  |  |  |  |  |  | 
CC(=O)c1c([S+]([O-])Cc2ccc([S+]([O-])C(F)(F)F)cc2)[nH]c2c(Br)ccc(Cl)c2c1=O (stereo not drawn) [Compound 64, 3-acetyl-8-bromo-5-chloro-2-((4-((trifluoromethyl)sulfinyl)benzyl)sulfinyl)quinolin-4(1H)-one] | > 2 µM | > 2 µM | > 10 µM | > 2 µM | > 10 µM | > 2 µM | > 2 µM | > 2 µM | 1.03 µM |  |  |  |  |  |  |  |  | 
CC(=O)c1c([S+]([O-])Cc2c(F)cccc2Cl)[nH]c2c(Br)ccc(Cl)c2c1=O (stereo not drawn) [Compound 74, 3-acetyl-8-bromo-5-chloro-2-((2-chloro-6-fluorobenzyl)sulfinyl)quinolin-4(1H)-one] | > 2 µM | > 2 µM | > 10 µM | > 2 µM | > 10 µM | > 2 µM | > 2 µM | > 2 µM | 1.06 µM |  |  |  |  |  |  |  |  | 
CC(=O)c1c([S+]([O-])Cc2cc(F)cc(F)c2)[nH]c2c(Br)ccc(Cl)c2c1=O (stereo not drawn) [Compound 46, 3-acetyl-8-bromo-5-chloro-2-((3,5-difluorobenzyl)sulfinyl)quinolin-4(1H)-one] | > 2 µM | > 2 µM | > 10 µM | > 2 µM | > 10 µM | > 2 µM | > 2 µM | > 2 µM | 1.16 µM |  |  |  |  |  |  |  |  | 
CC(=O)c1c([S+]([O-])Cc2ccc(F)cc2F)[nH]c2c(Br)ccc(Cl)c2c1=O (stereo not drawn) [Compound 29, 3-acetyl-8-bromo-5-chloro-2-((2,4-difluorobenzyl)sulfinyl)quinolin-4(1H)-one] | > 2 µM | > 2 µM | > 10 µM | > 2 µM | > 10 µM | > 2 µM | > 2 µM | > 2 µM | 0.85 µM |  |  |  |  |  |  |  |  | 

Second part, the molecule after the results:

IC50 [1] | IC50 [2] | IC50 [3] | IC50 [4] | IC50 [5] | IC50 [6] | IC50 [7] | IC50 [8] | IC50 [9] | IC50 [10] | IC50 [11] | IC50 [12] | IC50 [13] | IC50 [14] | IC50 [15] | IC50 [16] | IC50 [17] | IC50 [18] | SMILES
> 2 µM | > 2 µM | > 10 µM | > 2 µM | > 10 µM | > 2 µM | > 2 µM | > 2 µM | 1.01 µM |  |  |  |  |  |  |  |  |  | CC(=O)c1c([S+]([O-])Cc2cccc(F)c2)[nH]c2c(Br)ccc(Cl)c2c1=O (stereo not drawn) [Compound 50, 3-acetyl-8-bromo-5-chloro-2-((3-fluorobenzyl)sulfinyl)quinolin-4(1H)-one]
> 2 µM | > 2 µM | > 10 µM | > 2 µM | > 10 µM | > 2 µM | > 2 µM | > 2 µM | 1.34 µM |  |  |  |  |  |  |  |  |  | CC(=O)c1c([S+]([O-])Cc2ccc([N+](=O)[O-])cc2)[nH]c2c(Cl)ccc(Cl)c2c1=O (stereo not drawn) [Compound 57, 3-acetyl-5,8-dichloro-2-((4-nitrobenzyl)sulfinyl)quinolin-4(1H)-one]
 |  |  |  |  |  |  |  |  | > 2 µM | > 10 µM | 0.5 µM | > 10 µM | 1.47 µM | 1.58 µM | 0.58 µM | 0.58 µM | 1.11 µM | Cc1cc(C[S+]([O-])c2[nH]c3c(Cl)ccc(Cl)c3c(=O)c2C(=O)C(C)C)no1 (stereo not drawn) [Compound 86, 5,8-dichloro-3-isobutyryl-2-(((5-methylisoxazol-3-yl)methyl)sulfinyl)quinolin-4(1H)-one]
> 2 µM | > 2 µM | > 2 µM | > 2 µM | > 2 µM | > 2 µM | 1.16 µM | > 2 µM | 1.7 µM |  |  |  |  |  |  |  |  |  | COc1cc(S(F)(F)(F)(F)F)ccc1C[S+]([O-])c1[nH]c2c(Br)ccc(Cl)c2c(=O)c1C(C)=O (stereo not drawn) [Compound 75, 3-acetyl-8-bromo-5-chloro-2-((2-methoxy-4-(pentafluoro--sulfanyl)benzyl)sulfinyl)quinolin-4(1H)-one]
> 2 µM | > 2 µM | > 10 µM | 1.47 µM | > 10 µM | > 2 µM | 1.45 µM | 1.64 µM | 1.38 µM |  |  |  |  |  |  |  |  |  | CC(=O)c1c([S+]([O-])Cc2ccc(SC(F)(F)F)cc2)[nH]c2c(Br)ccc(Cl)c2c1=O (stereo not drawn) [Compound 56, 3-acetyl-8-bromo-5-chloro-2-((4-((trifluoromethyl)thio)benzyl)sulfinyl)quinolin-4(1H)-one]
> 2 µM | > 2 µM | > 10 µM | > 2 µM | > 10 µM | > 2 µM | 1.33 µM | > 2 µM | 0.95 µM |  |  |  |  |  |  |  |  |  | CC(=O)c1c([S+]([O-])Cc2ccc(F)c(Cl)c2)[nH]c2c(Br)ccc(Cl)c2c1=O (stereo not drawn) [Compound 31, 3-acetyl-8-bromo-5-chloro-2-((3-chloro-4-fluorobenzyl)sulfinyl)quinolin-4(1H)-one]
> 2 µM | > 2 µM | > 10 µM | > 2 µM | > 10 µM | > 2 µM | > 2 µM | > 2 µM | 1.88 µM |  |  |  |  |  |  |  |  |  | CC(=O)c1c([S+]([O-])Cc2ccc(C(C)(C)C)cc2)[nH]c2c(Br)ccc(Cl)c2c1=O (stereo not drawn) [Compound 60, 3-acetyl-8-bromo-2-((4-(tert-butyl)benzyl)sulfinyl)-5-chloroquinolin-4(1H)-one]
